Data taken from BindingDB's records for doi:10.1074/jbc.M109.039511 (University of Florida, 2010).
Structures can show the parent of a compound that is named as a salt.

Molecular target: T1, Acid phosphatase (Francisella tularensis subsp. tularensis (strain SCHU S4 / Schu 4), UniProt Q5NIC0)
T1 sequence (Q5NIC0 whole entry): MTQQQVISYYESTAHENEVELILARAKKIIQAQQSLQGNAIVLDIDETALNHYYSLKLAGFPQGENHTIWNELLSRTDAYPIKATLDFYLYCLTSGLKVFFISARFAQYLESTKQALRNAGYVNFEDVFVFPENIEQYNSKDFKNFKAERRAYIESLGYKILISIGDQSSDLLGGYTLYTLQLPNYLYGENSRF
Assay: Inhibitor Screening Assay
Procedure: The inhibitor screening assays were performed in 96-well format with 1152 small molecules found in the Prestwick chemical library (Prestwick Chemical, France).

SMILES	Ki [µM]
COc1ccc(CC2c3cc(OC)c(OC)cc3CC[N+]2(C)CCC(=O)OCCCCCOC(=O)CC[N+]2(C)CCc3cc(OC)c(OC)cc3C2Cc2ccc(OC)c(OC)c2)cc1OC (stereo not drawn)	342
O=C1OC(C(O)CO)=C(O)C1OP(=O)(O)O [2-phospho-L-ascorbic acid]	0.32
CCN(CC)CCNC(=O)c1ccc(N)cc1 [4-amino-N-[2-(diethylamino)ethyl]benzamide;hydrochloride]	14.8
O=c1c(O)c(-c2ccc(O)cc2)oc2cc(O)cc(O)c12	190
CC1(C)OC[C@@H]([C@H]2OC(=O)C(=O)C2O)O1 (stereo partly drawn) [(+)-5,6-O-Isopropylidene-L-ascorbic acid]	3.27
OC[C@H](O)c1oc(O)c(O)c1O [ascorbic acid]	380
O=c1c(O)c(-c2cc(O)c(O)c(O)c2)oc2cc(O)cc(O)c12	154
CCCCCCCCCCCCCCCC[N+](C)(C)CCN(Cc1ccc(OC)cc1)c1ncccn1 [SMR001233380]	0.59
